Measured values reported in PubChem BioAssay AID1963429 (Molecular Pharmacology Branch, DTP, NCI, 2024).

System: 126254-015-R-J1-PDC complex spheroid growth, % test/control
Experiment: Anticancer human tumor 126254-015-R-J1-PDC patient-derived soft tissue sarcoma cell line growth inhibition [Asc]
Details: for IC50: curve of first compound; for viability, T/C: stronger effect = lower value
Procedure, shortened: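 Complex spheroids combining tumor cells with HUVEC endothelial cells and human MSCs, at 37 degrees C, 5% CO2; agents tested alone or combined, half-log dilutions from at or near clinical Cmax, or 10 microM if Cmax unknown.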
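Also: spheroids exposed to compound for seven days.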
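For viability, T/C in this document: 100% = DMSO vehicle control wells.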

Compound `Cc1nc(N2CCC3(CC2)COC(C)C3N)c(CO)nc1Sc1ccnc(N)c1Cl` (stereo not given) + Cc1c(S(C)(=O)=O)c(-c2cc(F)cc(N3CCN(c4ccc(NS(=O)(=O)c5ccc(NC(CCN6CCC(C(=O)OCCCP(=O)(O)O)CC6)CSc6ccccc6)c(S(=O)(=O)C(F)(F)F)c5)cc4)CC3)c2)c(-c2ccc(Cl)cc2)n1C(C)C has an IC50 (second compound 0.1 µM) of 0.765 µM, an IC50 (second compound 0.316 µM) of 0.451 µM and an IC50 (second compound 1 µM) of 0.501 µM. It also gave an IC50 (second compound 3.16 µM) of 0.362 µM, an IC50 (second compound 10 µM) of 0.465 µM and a viability, T/C (second compound 0.1 µM, first compound 0.00949 µM) of 88.7%. The viability, T/C (second compound 0.1 µM, first compound 0.03 µM) was 82.2%, the viability, T/C (second compound 0.1 µM, first compound 0.0949 µM) was 68.6% and the viability, T/C (second compound 0.1 µM, first compound 0.3 µM) was 56.7%. It also gave a viability, T/C (second compound 0.1 µM, first compound 0.949 µM) of 51.9%, a viability, T/C (second compound 0.1 µM, first compound 3 µM) of 34.4% and a viability, T/C (second compound 0.316 µM, first compound 0.00949 µM) of 83.1%. The viability, T/C (second compound 0.316 µM, first compound 0.03 µM) was 77.6%, the viability, T/C (second compound 0.316 µM, first compound 0.0949 µM) was 67.8% and the viability, T/C (second compound 0.316 µM, first compound 0.3 µM) was 55.3%. The viability, T/C (second compound 0.316 µM, first compound 0.949 µM) was 41%, the viability, T/C (second compound 0.316 µM, first compound 3 µM) was 34.2% and the viability, T/C (second compound 1 µM, first compound 0.00949 µM) was 80.8%. For the same compound, the viability, T/C (second compound 1 µM, first compound 0.03 µM) was 75.7%, the viability, T/C (second compound 1 µM, first compound 0.0949 µM) was 72.2% and the viability, T/C (second compound 1 µM, first compound 0.3 µM) was 54.4%. The viability, T/C (second compound 1 µM, first compound 0.949 µM) was 43.2%, the viability, T/C (second compound 1 µM, first compound 3 µM) was 30.7% and the viability, T/C (second compound 3.16 µM, first compound 0.00949 µM) was 78.6%. It also gave a viability, T/C (second compound 3.16 µM, first compound 0.03 µM) of 80.7%, a viability, T/C (second compound 3.16 µM, first compound 0.0949 µM) of 70.4% and a viability, T/C (second compound 3.16 µM, first compound 0.3 µM) of 51.7%. For the same compound, the viability, T/C (second compound 3.16 µM, first compound 0.949 µM) was 40.1%, the viability, T/C (second compound 3.16 µM, first compound 3 µM) was 34.6% and the viability, T/C (second compound 10 µM, first compound 0.00949 µM) was 79.2%. For the same compound, the viability, T/C (second compound 10 µM, first compound 0.03 µM) was 84.7%, the viability, T/C (second compound 10 µM, first compound 0.0949 µM) was 74% and the viability, T/C (second compound 10 µM, first compound 0.3 µM) was 56.1%. It also gave a viability, T/C (second compound 10 µM, first compound 0.949 µM) of 40.2% and a viability, T/C (second compound 10 µM, first compound 3 µM) of 32%.
